Experimental data taken from US9409876B2, “Bradykinin receptor antagonists and pharmaceutical compositions containing them” (DOMPE' FARMACEUTICI S.P.A., priority 2013, dated 2016).

Target: T1, BKB1 receptors (Homo sapiens, UniProt P46663)
T1 construct: Human (IMR-90) lung fibroblast cells expressing native BKB1 receptors; endogenous in cells; host or cells: IMR-90 human lung fibroblasts, treated with human IL-1 to up-regulate BKB1
T1 sequence (P46663 1-353): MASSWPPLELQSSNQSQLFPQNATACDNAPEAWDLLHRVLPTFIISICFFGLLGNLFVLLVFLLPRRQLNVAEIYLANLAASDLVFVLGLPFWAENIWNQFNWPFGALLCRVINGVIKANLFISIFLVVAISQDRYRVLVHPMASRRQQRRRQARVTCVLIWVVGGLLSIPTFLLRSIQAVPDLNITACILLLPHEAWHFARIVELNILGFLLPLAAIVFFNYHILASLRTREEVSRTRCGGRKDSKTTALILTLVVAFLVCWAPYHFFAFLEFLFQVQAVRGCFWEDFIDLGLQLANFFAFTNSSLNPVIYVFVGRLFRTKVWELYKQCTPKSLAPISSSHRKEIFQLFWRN
Test: Calcium Mobilization Assay (FLIPR), IMR-90 cells, BKB1
Type: cell-based
Details: IL-1 induced IMR-90 cells, agonist desArg10-kallidin (DAKD)
Description: Calcium Mobilization Assay (FLIPR)—Human (IMR-90) lung fibroblast cells expressing native BKB1 receptors were harvested by trypsinization and seeded into black wall/clear bottom 96-well plates (Costar 3904; Corning Life Sciences, Acton, Mass.) at approximately 13,000 cells/well. After 1 day incubation, cells were treated with human IL-1 (0.35 ng/ml) in 10% FBS/MEM for 2 h to up-regulate BKB1 receptors. Induced cells were loaded with fluorescent calcium indicator by incubation with 2.3 µM Fluo-4/acetoxymethyl ester (Invitrogen) at 37° C. for 1.5 h in the presence of an anion transport inhibitor (2.5 mM probenecid in 1% FBS/MEM). Extracellular dye was removed by washing with assay buffer (2.5 mM probenecid, 0.1% BSA in 20 mM HEPES/HBSS without bicarbonate or phenol red, pH 7.5) and cell plates were kept in the dark until used. Test compounds were assayed at eight concentrations in triplicate.

Row | Structure (SMILES) | IC50 [µM]
1 | CCC(CC)CN(C(=O)Cc1ccc(F)cc1)C(C(=O)NCC1CCCO1)c1ccc(C)cc1 (stereo not shown) [42 (mix), N-(2-ethylbutyl)-2-(4-fluorophenyl)-N-{1-(4-methylphenyl)-2-oxo-2-[(tetrahydrofuran-2-ylmethyl)amino]ethyl}acetamide] | 9.6
2 | CCC(CC)CN(C(=O)Cc1ccccc1C)C(C(=O)NCC1CCCO1)c1ccc(C)cc1 (stereo not shown) [41 (mix), N-(2-ethylbutyl)-2-(2-methylphenyl)-N-{1-(4-methylphenyl)-2-oxo-2-[(tetrahydrofuran-2-ylmethyl)amino]ethyl}acetamide] | 4.3
3 | Cc1ccc(C(C(=O)NCC2CCCO2)N(Cc2csc3ccccc23)C(=O)CN(C)C)cc1 (stereo not shown) [39 (mix), N-(1-benzothiophen-3-ylmethyl)-2-(dimethylamino)-N-{1-(4-methylphenyl)-2-oxo-2-[(tetrahydrofuran-2-ylmethyl)amino]ethyl}acetamide] | 1.2
4 | COc1ccccc1CN(C(=O)Cn1nnc2ccccc21)C(C(=O)NCC1CCCO1)c1ccc(C(F)(F)F)cc1 (stereo not shown) [53 (mix), 2-(1H-benzotriazol-1-yl)-N-(2-methoxybenzyl)-N-{1-(4-trifluoromethylphenyl)-2-oxo-2-[(tetrahydrofuran-2-ylmethyl)amino]ethyl}acetamide] | 0.297
5 | Cc1ccc(C(C(=O)NCC2CCCO2)N(CC2CCCC2)C(=O)CC2CCCC2)cc1 (stereo not shown) [51 (mix), 2-cyclopentyl-N-cyclopentylmethyl-N-{1-(4-methylphenyl)-2-oxo-2-[(tetrahydrofuran-2-ylmethyl)amino]ethyl}acetamide] | 13

The remaining lines, values ahead:

Row | IC50 [µM] | Structure (SMILES)
6 | 15 | COc1ccccc1CN(C(=O)C1CC1)C(C(=O)NCC1CCCO1)c1ccc(C)cc1 (stereo not shown) [27 (mix), N-(2-methoxybenzyl)-N-{1-(4-methylphenyl)-2-oxo-2-[(tetrahydrofuran-2-ylmethyl)amino]ethyl}cyclopropanecarboxamide]
7 | 14.4 | COc1ccccc1CN(C(=O)c1ccccc1[N+](=O)[O-])C(C(=O)NCC1CCCO1)c1ccc(C)cc1 (stereo not shown) [26 (mix), N-(2-methoxybenzyl)-2-nitro-N-{1-(4-methylphenyl)-2-oxo-2-[(tetrahydrofuran-2-ylmethyl)amino]ethyl}benzamide]
8 | 0.063 | COc1ccccc1CN(C(=O)c1coc(C)n1)[C@@H](C(=O)NC[C@H]1CCCO1)c1ccc(C)cc1 [Compound 2 (R,R)]
9 | 2.1 | COc1ccccc1CN(C(=O)Cc1ccc(N(C)C)cc1)C(C(=O)NCC1CCCO1)c1ccc(C)cc1 (stereo not shown) [29 (mix), 2-[(4-dimethylamino)phenyl]-N-(2-methoxybenzyl)-N-{1-(4-methylphenyl)-2-oxo-2-[(tetrahydrofuran-2-ylmethyl)amino]ethyl}acetamide]
10 | 1.9 | COc1ccccc1CN(C(=O)Cn1nnc2ccccc21)C(C(=O)NCC1CCCO1)c1ccc(C)cc1 (stereo not shown) [1 (mix), 2-(1H-benzotriazol-1-yl)-N-(2-methoxybenzyl)-N-{1-(4-methylphenyl)-2-oxo-2-[(tetrahydrofuran-2-ylmethyl)amino]ethyl}acetamide]
